From patent US20050054531A1, “N-(phosphonomethyl) glycine (glyphosate) salt, a preparation process thereof, a concentrate composition and a phytotoxic formulation comprising it, and a method to combat weeds in a crop with a formulation thereto” (priority 2003, published 2005)
“Also recorded” adds a separate entry of the source.

Tests used:
[1] = stated in the formulation process; cited from earlier work
[2] = system: jungle rice and Aleppo grass; assay: Field observations on activity rate: control of jungle rice and Aleppo grass (Example 3); assay type: in vivo; design: key: beginning of the effect (BE); death of the plant (DP); without symptoms (WS); settings: visual, 5,000 cm^3/ha (SQUADRON 24% 10,000)
Experimental: (§1) Products were applied on a plot with maize stubble, preparing it for sowing wheat, where most abundant weeds were Aleppo grass (Sorghum halepense), water grass, jungle rice (Echinochloa crusgalli, Echinochloa colonum), and Bermuda grass (Cynodon dactylon).
(§2) The assessment was performed visually on 3, 4, 5, 8, and 10 days after application for jungle rice, and Aleppo grass, and 4,7,10, and 14 days for Bermuda grass, where the obtained effects were recorded and identified as follows: beginning of the effect (BE), death of the plant (DP), and without symptoms (WS).

Bermuda grass [3] = assay: Field observations on activity rate: control of Bermuda grass (Example 3); assay type: in vivo, Cynodon dactylon; design: key: beginning of the effect (BE); death of the plant (DP); without symptoms (WS); settings: visual, 5,000 cm^3/ha (SQUADRON 24% 10,000)
Experimental: as §1, §2

[4] = system: Aleppo grass, Bermuda grass, Blite, Wild buckwheat, Nutgrass; assay: Field comparison of salt, trunk mixture and Rondo on renovation ground prior to cane plantation (Example 4); assay type: in vivo; settings: scale (1) out of control to (10) excellent control
Source text: APPLICATION: On renovation ground
TYPE OF TREATMENT: TOTAL (PRIOR TO CANE PLANTATION)
EXPERIMENTAL DESIGN: RANDOMIZED BLOCKS
VOLUME PER HECTARE: 120 liters

Aleppo grass = assay: Weed control in apple culture (Example 5): Aleppo grass; assay type: in vivo, Sorghum halepensis; settings: 4 l/ha (1,440 g/ha 100% acid)
Experimental: (§3) Observations: Only one dose of each product was tested in three repetitions, on areas of 2 m×8 m=16 m^2.

Bermuda grass [5] = assay: Weed control in apple culture (Example 5): Bermuda grass; assay type: in vivo, Cynodon dactylon; settings: 4 l/ha (1,440 g/ha 100% acid)
Experimental: as §3

Sunchillo (White aster) = assay: Weed control in apple culture (Example 5): Sunchillo; assay type: in vivo, Wedelia glauca; settings: 4 l/ha (1,440 g/ha 100% acid)
Experimental: as §3

Apple, Red Delicious = assay: Phytotoxicity to the fruit tree (Example 5); assay type: in vivo; settings: apple culture; 4 l/ha
Experimental: Variety: Hybrid. Red Delicious.
Phenologic status: with fruits of 2 cm diameter.
as §3

[6] = system: Blite, Pigweed, and Aleppo grass; assay: Control of soy weeds (Example 6): Blite, Pigweed, and Aleppo grass; assay type: in vivo, Amaranthus quitensis, Chenopodium album, Sorghum halepense
Source text: (§4) OBJECTIVE: The subject of the present assay comprises the assessment of different Glyphosate formulations on annual and perennial weeds in a resistant soy crop.
(§5) Crop data were as follows: • Species: Soya • Variety: A-6443 • See-planting time: Second. • Preceding crop: Wheat • Density of seeds planted: 33 grains/m^2 • Density of grown plants: 28 pl/m^2 • Space between furrows: 0.52 m. • Culture system: Direct seed-planting. • Phenologic status on application: R-4/5
(§6) Random blocks design was used, with four repetitions per treatment. The size of the parcels were: 4 m wide per 15 m long (60 m^2), totaling 240 m^2 per treatment.
(§7) The product was applied with a carbon dioxide (CO2) hand backpack, provided with four tips separated by 0.50 m each, with a plain fan-type 110 O2 pastille. Applied volume was of 110 1/ha, at a pressure of 45 lb/cm^2
(§8) The assessments were carried out visually by comparison with control non-applied parcels, and at 5, 10, 15, and 25 days after the application date en each case, where the intervals between each application from the beginning of the treatment were 5, 5, and 10 days, respectively.
(§9) Variance analysis (ANOVA) and Duncan Test were performed with the results obtained, in order to detect mean differences.

[7] = system: Bermuda grass and Nutgrass; assay: Control of soy weeds (Example 6): Bermuda grass and Nutgrass; assay type: in vivo, Cynodon dactylon, Cyperus rotundus
Source text: as §4, §5, §6, §7, §8, §9

Soya A-6443 = assay: Phytotoxicity on the soy crop (Example 6); assay type: in vivo; settings: 2,000 and 3,000 cm^2/ha; soy at R-4/5
Source text: as §4, §5, §7

[8] = Glyphosate triazolamine salt 2,000 / Rondo 2,500 cm^2/ha
[9] = Glyphosate triazolamine salt 3,000 / Rondo 5,000 cm^2/ha

Nc1nc[nH]n1 [triazolamine, 1H-1,2,4-triazol-3-yl-amine]
solubility in water (general statement) [1]: quite soluble

1H-1,2,4-triazole-3-yl-amine N-(phosphonomethyl)-glycine salt [Glyphosate triazolamine salt]
Control of jungle rice and Aleppo grass, 3 DAYS ([2]; 3 days after application): BE | Control of jungle rice and Aleppo grass, 4 DAYS ([2]; 4 days after application): BE | Control of jungle rice and Aleppo grass, 5 DAYS ([2]; 5 days after application): DP | Control of jungle rice and Aleppo grass, 8 DAYS ([2]; 8 days after application): DP | Control of jungle rice and Aleppo grass, 10 DAYS ([2]; 10 days after application): DP | Control of Bermuda grass, 4 DAYS (Bermuda grass [3]; 4 days after application): BE | Control of Bermuda grass, 7 DAYS (Bermuda grass [3]; 7 days after application): BE | Control of Bermuda grass, 10 DAYS (Bermuda grass [3]; 10 days after application): DP | Control of Bermuda grass, 14 DAYS (Bermuda grass [3]; 14 days after application): DP | ASSAY OBSERVATIONS, control, 5 DAYS ([4]; 3 liters/ha): 4 | ASSAY OBSERVATIONS, control, 15 DAYS ([4]; 3 liters/ha): 7 | ASSAY OBSERVATIONS, control, 30 DAYS ([4]; 3 liters/ha): 9 | ASSAY OBSERVATIONS, control, 5 DAYS ([4]; 4 liters/ha): 4 | ASSAY OBSERVATIONS, control, 15 DAYS ([4]; 4 liters/ha): 7 | ASSAY OBSERVATIONS, control, 30 DAYS ([4]; 4 liters/ha): 10 | COUNT, averages of blocks, A (Aleppo grass) (Aleppo grass; 38 days after application): 65 | COUNT, averages of blocks, A (Aleppo grass) (Aleppo grass; 51 days after application): 85 | COUNT, averages of blocks, A (Aleppo grass) (Aleppo grass; 99 days after application): 95 | COUNT, averages of blocks, B (Bermuda grass) (Bermuda grass [5]; 38 days after application): 70 | COUNT, averages of blocks, B (Bermuda grass) (Bermuda grass [5]; 51 days after application): 80 | COUNT, averages of blocks, B (Bermuda grass) (Bermuda grass [5]; 99 days after application): 90 | COUNT, averages of blocks, C (Sunchillo) (Sunchillo (White aster); 38 days after application): 75 | COUNT, averages of blocks, C (Sunchillo) (Sunchillo (White aster); 51 days after application): 90 | COUNT, averages of blocks, C (Sunchillo) (Sunchillo (White aster); 99 days after application): 98 | phytotoxicity to the fruit tree (Apple, Red Delicious): No phytotoxicity to the fruit tree was observed | Control % after 5 DAYS, data average by assessment date [6, 8]: 58.33% | Control % after 10 DAYS, data average by assessment date [6, 8]: 100.00% | Control % after 15 DAYS, data average by assessment date [6, 8]: 100.00% | Control % after 25 DAYS, data average by assessment date [6, 8]: 100.00% | Control % after 5 days, I [6, 8]: 60% | Control % after 5 days, II [6, 8]: 55% | Control % after 5 days, III [6, 8]: 60% | Control % after 5 days, MEAN [6, 8]: 58.33% | Control % after 10 days, I [6, 8]: 100% | Control % after 10 days, II [6, 8]: 100% | Control % after 10 days, III [6, 8]: 100% | Control % after 10 days, MEAN [6, 8]: 100.00% | Control % after 15 days, I [6, 8]: 100% | Control % after 15 days, II [6, 8]: 100% | Control % after 15 days, III [6, 8]: 100% | Control % after 15 days, MEAN [6, 8]: 100.00% | Control % after 5 DAYS, data average by assessment date [6, 9]: 95.00% | Control % after 10 DAYS, data average by assessment date [6, 9]: 100.00% | Control % after 15 DAYS, data average by assessment date [6, 9]: 100.00% | Control % after 25 DAYS, data average by assessment date [6, 9]: 100.00% | Control % after 5 days, I [6, 9]: 100% | Control % after 5 days, II [6, 9]: 90% | Control % after 5 days, III [6, 9]: 95% | Control % after 5 days, MEAN [6, 9]: 95.00% | Control % after 10 days, I [6, 9]: 100% | Control % after 10 days, II [6, 9]: 100% | Control % after 10 days, III [6, 9]: 100% | Control % after 10 days, MEAN [6, 9]: 100.00% | Control % after 15 days, I [6, 9]: 100% | Control % after 15 days, II [6, 9]: 100% | Control % after 15 days, III [6, 9]: 100% | Control % after 15 days, MEAN [6, 9]: 100.00% | Control % after 10 days, I (TABLE NO. 4) [6, 8]: 100% | Control % after 10 days, II (TABLE NO. 4) [6, 8]: 100% | Control % after 10 days, III (TABLE NO. 4) [6, 8]: 100% | Control % after 10 days, MEAN (TABLE NO. 4) [6, 8]: 100.00% | Control % after 10 days, I (TABLE NO. 4) [6, 9]: 100% | Control % after 10 days, II (TABLE NO. 4) [6, 9]: 100% | Control % after 10 days, III (TABLE NO. 4) [6, 9]: 100% | Control % after 10 days, MEAN (TABLE NO. 4) [6, 9]: 100.00% | Control % after 5 days, I [7, 8]: 60% | Control % after 5 days, II [7, 8]: 50% | Control % after 5 days, III [7, 8]: 50% | Control % after 5 days, MEAN [7, 8]: 53.00% | Control % after 10 days, I [7, 8]: 75% | Control % after 10 days, II [7, 8]: 90% | Control % after 10 days, III [7, 8]: 90% | Control % after 10 days, MEAN [7, 8]: 85.00% | Control % after 15 days, I [7, 8]: 85% | Control % after 15 days, II [7, 8]: 90% | Control % after 15 days, III [7, 8]: 90% | Control % after 15 days, MEAN [7, 8]: 88.33% | Control % after 25 days, I [7, 8]: 85% | Control % after 25 days, II [7, 8]: 90% | Control % after 25 days, III [7, 8]: 90% | Control % after 25 days, MEAN [7, 8]: 88.33% | Control %, 5 DAYS, data average by assessment date [7, 8]: 53.33 B % | Control %, 10 DAYS, data average by assessment date [7, 8]: 85.00 BC % | Control %, 15 DAYS, data average by assessment date [7, 8]: 88.33 B % | Control %, 25 DAYS, data average by assessment date [7, 8]: 83.33 B % | Control % after 5 days, I [7, 9]: 70% | Control % after 5 days, II [7, 9]: 80% | Control % after 5 days, III [7, 9]: 75% | Control % after 5 days, MEAN [7, 9]: 75.00% | Control % after 10 days, I [7, 9]: 100% | Control % after 10 days, II [7, 9]: 100% | Control % after 10 days, III [7, 9]: 100% | Control % after 10 days, MEAN [7, 9]: 100.00% | Control % after 15 days, I [7, 9]: 100% | Control % after 15 days, II [7, 9]: 100% | Control % after 15 days, III [7, 9]: 100% | Control % after 15 days, MEAN [7, 9]: 100.00% | Control % after 25 days, I [7, 9]: 100% | Control % after 25 days, II [7, 9]: 100% | Control % after 25 days, III [7, 9]: 100% | Control % after 25 days, MEAN [7, 9]: 100.00% | Control %, 5 DAYS, data average by assessment date [7, 9]: 75.00 A % | Control %, 10 DAYS, data average by assessment date [7, 9]: 100.00 A % | Control %, 15 DAYS, data average by assessment date [7, 9]: 100.00 A % | Control %, 25 DAYS, data average by assessment date [7, 9]: 100.00 A % | final control over Bermuda grass and nutgrass ([7]; higher dosage treatments: Glyphosate triazolamine salt 3,000 / Rondo 5,000 cm^2/ha): total control | phytotoxicity on soy leaves / soy crops (Soya A-6443): showed phytotoxicity problems on soy leaves; also recorded: showed phytotoxicity over soy crops

O=C(O)CNCP(=O)(O)O [Glyphosate, N-(phosphonomethyl)-glycine]
solubility in water (general statement) [1]: practically non-soluble in water
